Assay results taken from US20210052771A1, “NANOPARTICULATE MINERALIZED COLLAGEN GLYCOSAMINOGLYCAN SCAFFOLD WITH AN ANTI-RESORPTION FACTOR” (THE REGENTS OF THE UNIVERSITY OF CALIFORNIA, priority 2018, published 2021).

Tests used:
[1] = test system: canonical BMP receptor signaling pathway; experiment: Western blot of hMSCs on Col-GAG and MC-GAG with DMH1; assay type: cell-based, human; details: 50 μM
Protocol: (§1) Osteogenic differentiation of hMSCs on Col-GAG and MC-GAG: 3×10^5 hMSCs were seeded onto 8 mm discs of CG-GAG and MC-GAG scaffolds in proliferation media. 24 h after seeding, media was switched to osteogenic differentiation media consisting of 10 mM β-glycerophosphate, 50 μg/mL ascorbic acid, and 0.1 μM dexamethasone. For inhibitor studies, scaffolds were treated or untreated with dorsomorphin homologue 1 (DMH1; Sigma-Aldrich) or PD98059 (Cell Signaling Technologies, Beverly, Mass.) separately, all at a concentration of 50 μM. Fresh DMH1 and PD98059 were added to each media change every 3 days.
(§2) Western blot: Lysates were prepared from scaffolds at 0, 4, 14, and 24 days of culture using SDS sample buffer and equal amounts were subjected to 4-20% SDS-PAGE (Bio-Rad, Hercules, Calif.). Western blot analysis was carried out with antibodies against OPG, RANKL, phosphorylated small mothers against decapentaplegic 1/5 (p-Smad1/5), total Smad5, phosphorylated extracellular regulated kinase 1/2 (p-ERK1/2), total ERK1/2, and (3-actin followed by 1:4000 dilutions of HRP-conjugated IgG antibodies (Bio-Rad, Hercules, Calif.) and an enhanced chemiluminescent substrate (Thermo Scientific, Rockford, Ill.). For detection of p-Smad1/5 and total Smad5, 10 μg of lysate was loaded per lane. For detection of OPG, RANKL, p-ERK1/2, total ERK1/2, and β-actin, 20 μg of lysate was loaded per lane. All antibodies were obtained from Cell Signaling Technologies (Beverly, Mass.) with the exception of RANKL, OPG and β-actin antibodies which were obtained from Santa Cruz Biotechnology (Santa Cruz, Calif.). Imaging analysis was carried out using ImageJ (NIH, Bethesda, Md.).

[2] = test system: MEK1/ERK1/2 signaling pathway; experiment: Western blot of hMSCs on Col-GAG and MC-GAG with PD98059; assay type: cell-based, human; details: 50 μM
Protocol: as §1, §2

[3] = all timepoints, either material

## CC(C)Oc1ccc(-c2cnc3c(-c4ccnc5ccccc45)cnn3c2)cc1 [DMH1, dorsomorphin homologue 1]
[1]
  total Smad5, total ERK1/2, RANKL, or actin: No differences
[1]; MC-GAG at day 4
  phosphorylated ERK1/2: small elevation
[1]; [3]
  phosphorylation of Smad1/5: partially decreased
[1]; both Col-GAG and MC-GAG, particularly day 14
  OPG expression: increased

## COc1cccc(-c2cc(=O)c3ccccc3o2)c1N [PD98059]
[2]
  phosphorylated Smad1/5, total Smad5, total ERK1/2, or actin: no effects
[2]; Col-GAG
  OPG protein expression: no differences
  RANKL expression: no differences
[2]; MC-GAG, all timepoints
  OPG protein expression: decreased
[2]; MC-GAG, particularly day 24
  RANKL expression: downregulated
[2]; [3]
  phosphorylated ERK1/2: decreased
